Reference: US8853230B2, “Inhibitors of JAK” (Portola Pharmaceuticals, Inc., priority 2009, dated 2014)

Experiments:
JAK3 = target: T1, JAK3 (Homo sapiens, UniProt P52333); experiment: Z'-LYTE kinase assay, JAK3 tyrosine phosphorylation activity; type: biochemical
T1 construct: 5 μl of catalytic domain recombinant Kinase enzyme+Tyr peptide substrate (Invitrogen, Calif.); purchased Invitrogen
How it was run: (§1)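 FRET-based Z′-LYTE format with recombinant catalytic-domain kinases and Tyr6 peptide substrate; compounds in 1% DMSO final, duplicate wells. Kinase reaction with ATP runs 1 h at room temperature, then protease development 1 h; fluorescence read at ex 400, em 445/520 nm. IC50 from 4-parameter logistic fit of percent phosphorylation versus uninhibited.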

TYK2 = target: T2, TYK2 (Homo sapiens, UniProt P29597); experiment: Z'-LYTE kinase assay, TYK2 tyrosine phosphorylation activity; type: biochemical
T2 construct: 5 μl of catalytic domain recombinant Kinase enzyme+Tyr peptide substrate (Invitrogen, Calif.); purchased Invitrogen
T2 sequence (P29597 897-1176 limits assumed): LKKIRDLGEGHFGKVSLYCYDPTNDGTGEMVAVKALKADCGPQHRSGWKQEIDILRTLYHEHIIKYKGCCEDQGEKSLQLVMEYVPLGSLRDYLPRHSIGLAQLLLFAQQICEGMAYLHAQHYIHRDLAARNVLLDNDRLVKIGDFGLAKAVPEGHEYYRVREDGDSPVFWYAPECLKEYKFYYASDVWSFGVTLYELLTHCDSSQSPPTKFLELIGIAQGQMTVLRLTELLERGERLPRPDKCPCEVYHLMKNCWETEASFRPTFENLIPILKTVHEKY
How it was run: as §1

JAK1 = target: T3, JAK1 (Homo sapiens, UniProt P23458); experiment: Z'-LYTE kinase assay, JAK1 tyrosine phosphorylation activity; type: biochemical; conditions: read-out: JAK 1 IC50
T3 construct: 5 μl of catalytic domain recombinant Kinase enzyme+Tyr peptide substrate (Invitrogen, Calif.); purchased Invitrogen
T3 sequence (P23458 875-1153 limits assumed): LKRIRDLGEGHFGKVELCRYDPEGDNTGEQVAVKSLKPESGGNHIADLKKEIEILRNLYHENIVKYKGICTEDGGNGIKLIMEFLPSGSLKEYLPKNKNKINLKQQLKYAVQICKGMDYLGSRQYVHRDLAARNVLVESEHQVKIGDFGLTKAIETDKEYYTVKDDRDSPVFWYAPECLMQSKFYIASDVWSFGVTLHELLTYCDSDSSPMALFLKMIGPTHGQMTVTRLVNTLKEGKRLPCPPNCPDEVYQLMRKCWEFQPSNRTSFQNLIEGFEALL
How it was run: as §1

JAK2 = target: T4, JAK2 (Homo sapiens, UniProt O60674); experiment: Z'-LYTE kinase assay, JAK2 tyrosine phosphorylation activity; type: biochemical
T4 construct: 5 μl of catalytic domain recombinant Kinase enzyme+Tyr peptide substrate (Invitrogen, Calif.); purchased Invitrogen
T4 sequence (O60674 849-1124 limits assumed): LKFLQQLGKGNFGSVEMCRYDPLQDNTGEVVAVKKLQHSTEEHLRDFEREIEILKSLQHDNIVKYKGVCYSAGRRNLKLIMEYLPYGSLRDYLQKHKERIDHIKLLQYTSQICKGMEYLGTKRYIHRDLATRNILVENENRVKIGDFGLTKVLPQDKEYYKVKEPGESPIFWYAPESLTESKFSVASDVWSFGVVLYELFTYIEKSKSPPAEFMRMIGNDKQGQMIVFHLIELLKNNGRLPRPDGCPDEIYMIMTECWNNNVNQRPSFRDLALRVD
How it was run: as §1

[1] = system: IL4-induced phospho STAT6 formation in Ramos B lymphocytes; experiment: Inhibition of IL4-induced phospho STAT6 formation in Ramos B lymphocytes (flow cytometry); type: cell-based, human; conditions: Homo sapiens; for inhibition at 0.2 µM: 200 nM compound, read-out: % Inhibition of IL-4 Induced STAT6 Phosphorylation 200 nM; for inhibition at 1 µM: 1 μM compound, read-out: % Inhibition of IL-4 Induced STAT6 Phosphorylation 1 μM
Excerpt: Similar types of assays can be used to assess JAK inhibitory activity and to determine the degree of selectivity of the particular compound as compared to syk. One means of assaying for such inhibition is detection of the effect of the compounds of the present invention on the upregulation of downstream gene products. In the Ramos/IL4 assay, B-cells are stimulated with the cytokine Interleukin-4 (IL-4) leading to the activation of the JAK/Stat pathway through phosphorylation of the JAK family kinases, JAK1 and JAK3, which in turn phosphorylate and activate the transcription factor Stat-6. […] To study the effect of inhibitors (e.g., the 2,4-substituted pyrimindinediamine compounds described herein) on the JAK1 and JAK3, human Ramos B-cells are stimulated with human IL-4. 10′ post-stimulation, cells are subjected to intracellular flow cytometry to measure the extent of STAT-6 phosphorylation. 20 to 24 hours post-stimulation, cells are stained for upregulation of CD23 and analyzed using flow cytometry.
Inhibition of IL4-induced phospho STAT6 formation was measured by pre-incubating 0.5 million Ramos B lymphocytes (ATCC) with 5 μl compound or DMSO vehicle for 1 hour at 37° C./5% CO2. Cells were activated by addition of 1 ng/ml [f]IL4 (R & D Research Systems) for 10 min at 37° C./5% CO2 and then fixed by addition of 1.6% [f]PFA (Electron Microscopy Services). Following a PBS wash step and permaeabilization with 100% methanol, cells were incubated with ALEXA-conjugated anti-phosphoSTAT6 (Y641) antibody (BD 612600). The extent of cell associated-fluorescence was determined by flow cytomentry and data expressed as mean fluorescent intensity. The extent of inhibition of the IL4-induced signal was then calculated.

T1 sequence (P52333 822-1111 limits assumed): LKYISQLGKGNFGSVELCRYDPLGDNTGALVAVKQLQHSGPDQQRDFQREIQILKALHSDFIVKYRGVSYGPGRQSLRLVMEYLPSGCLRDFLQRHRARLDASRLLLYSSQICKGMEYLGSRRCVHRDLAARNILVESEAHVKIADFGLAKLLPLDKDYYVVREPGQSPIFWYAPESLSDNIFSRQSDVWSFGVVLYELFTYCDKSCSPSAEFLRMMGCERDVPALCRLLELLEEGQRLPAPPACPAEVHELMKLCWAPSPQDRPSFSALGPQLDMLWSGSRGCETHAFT

| SMILES | IC50 (JAK3) [nM] | IC50 (TYK2) [nM] | IC50 (JAK1) [nM] | IC50 (JAK2) [nM] | inhibition at 0.2 µM [1] [%] | inhibition at 1 µM [1] [%] |
| --- | --- | --- | --- | --- | --- | --- |
| NC(=O)c1cnc(Nc2ccc(Cl)c(NC(=O)N3CCCC3)c2)nc1NCc1cccc(F)c1 [Example 177, 2-(4-chloro-3-(pyrrolidine-1-carboxamido)phenylamino)-4-(3-fluorobenzylamino)pyrimidine-5-carboxamide] | 1 to 10 | 100 to 1000 | > 1000 | 100 to 1000 | 2.3 | 7.3 |
| NC(=O)c1cnc(Nc2cccc(NC(=O)[C@@H]3CCCO3)c2)nc1NCc1cccc(F)c1 [Example 208, (S)-4-(3-fluorobenzylamino)-2-(3-(tetrahydrofuran-2-carboxamido)phenylamino)pyrimidine-5-carboxamide] | 1 to 10 | 10 to 100 | 10 to 100 | 10 to 100 | 22.7 | 67.7 |
| NC(=O)c1cnc(Nc2cccc(NC(=O)N3CCCC3)c2)nc1NCc1ccccc1F [Example 168, 4-(2-fluorobenzylamino)-2-(3-(pyrrolidine-1-carboxamido)phenylamino)pyrimidine-5-carboxamide] | 1 to 10 | 1 to 10 | 10 to 100 | 10 to 100 | 54 | 92 |
| COc1ccc(Nc2ncc(C(N)=O)c(NCc3ccccc3)n2)cc1NC(=O)N1CCCC1 [Example 163, 4-(benzylamino)-2-(4-methoxy-3-(pyrrolidine-1-carboxamido)phenylamino)pyrimidine-5-carboxamide] | 1 to 10 | 1 to 10 | 10 to 100 | 10 to 100 | 20.7 | 61 |
| C[C@@H]1CCCN1C(=O)Nc1cccc(Nc2ncc(C(N)=O)c(NCc3ccccc3)n2)c1 [Example 146, (R)-4-(benzylamino)-2-(3-(2-methylpyrrolidine-1-carboxamido)phenylamino)pyrimidine-5-carboxamide] | 1 to 10 | 1 to 10 | 10 to 100 | 10 to 100 | 40.7 | 82 |
| NC(=O)c1cnc(Nc2cccc(NC(=O)N3CCCC3)c2)nc1NCc1cccc(F)c1 [Example 179, 4-(3-fluorobenzylamino)-2-(3-(pyrrolidine-1-carboxamido)phenylamino)pyrimidine-5-carboxamide] | 1 to 10 | 10 to 100 | 10 to 100 | 10 to 100 | 11.3 | 10.7 |
| NC(=O)c1cnc(Nc2ccc(Cl)c(NC(=O)N3CCCC3)c2)nc1NCc1ccccc1F [Example 170, 2-(4-chloro-3-(pyrrolidine-1-carboxamido)phenylamino)-4-(2-fluorobenzylamino)pyrimidine-5-carboxamide] | 1 to 10 | 10 to 100 | > 1000 | > 1000 | 5.7 | 53.7 |
| CNC(=O)Nc1cc(Nc2ncc(C(N)=O)c(NCc3ccccc3F)n2)ccc1Cl [Example 169, 2-(4-chloro-3-(3-methylureido)phenylamino)-4-(2-fluorobenzylamino)pyrimidine-5-carboxamide] | 1 to 10 | 10 to 100 | 100 to 1000 | 100 to 1000 | 3.3 | 16.7 |
| C[C@@H](Nc1nc(Nc2ccc(Cl)c(NC(=O)N(C)C)c2)ncc1C(N)=O)c1ccccc1 [Example 195, (R)-2-(4-chloro-3-(3,3-dimethylureido)phenylamino)-4-(1-phenylethylamino)pyrimidine-5-carboxamide] | 1 to 10 | 10 to 100 | 100 to 1000 | 10 to 100 | 3.3 | 27.3 |
| NC(=O)c1cnc(Nc2cccc(NC(=O)[C@H]3CCCO3)c2)nc1NCc1ccccc1 [Example 202, (R)-4-(benzylamino)-2-(3-(tetrahydrofuran-2-carboxamido)phenylamino)pyrimidine-5-carboxamide] | 1 to 10 | 1 to 10 | 10 to 100 | 10 to 100 | 23.5 | 48.5 |
| C[C@@H](Nc1nc(Nc2ccc(Cl)c(NC(N)=O)c2)ncc1C(N)=O)c1ccccc1 [Example 193, (R)-2-(4-chloro-3-ureidophenylamino)-4-(1-phenylethylamino)pyrimidine-5-carboxamide] | 1 to 10 | 100 to 1000 | 100 to 1000 | 100 to 1000 | 13.7 | 51.3 |

Continued, in another order:

| IC50 (JAK3) [nM] | IC50 (TYK2) [nM] | IC50 (JAK1) [nM] | IC50 (JAK2) [nM] | SMILES | inhibition at 0.2 µM [1] [%] | inhibition at 1 µM [1] [%] |
| --- | --- | --- | --- | --- | --- | --- |
| 1 to 10 | 10 to 100 | 100 to 1000 | 100 to 1000 | NC(=O)Nc1cc(Nc2ncc(C(N)=O)c(NCc3ccccc3)n2)ccc1Cl [Example 194, 4-(benzylamino)-2-(4-chloro-3-ureidophenylamino)pyrimidine-5-carboxamide] | 10 | 22.7 |
| 1 to 10 | 1 to 10 | 10 to 100 | 10 to 100 | CNC(=O)Nc1cc(Nc2ncc(C(N)=O)c(NCc3ccccc3)n2)ccc1OC [Example 164, 4-(benzylamino)-2-(4-methoxy-3-(3-methylureido)phenylamino)pyrimidine-5-carboxamide] | 34.7 | 68.7 |
| 10 to 100 | 10 to 100 | 100 to 1000 | 100 to 1000 | COCC(=O)Nc1cc(Nc2ncc(C(N)=O)c(NCc3ccccc3)n2)ccc1Cl [Example 106, 4-(benzylamino)-2-(4-chloro-3-(2-methoxyacetamido)phenylamino)pyrimidine-5-carboxamide] | 16.8 | 27.8 |
| 10 to 100 | 100 to 1000 | 100 to 1000 | 100 to 1000 | CC(=O)Nc1ccc(F)c(Nc2ncc(C(N)=O)c(NCc3ccccc3)n2)c1 [Example 171, 2-(5-acetamido-2-fluorophenylamino)-4-(benzylamino)pyrimidine-5-carboxamide] | 7.3 | 15.3 |
| 1 to 10 | 1 to 10 | 10 to 100 | 10 to 100 | CC(=O)Nc1cc(Nc2ncc(C(N)=O)c(NCc3ccccc3)n2)ccc1C [Example 155, 2-(3-acetamido-4-methylphenylamino)-4-(benzylamino)pyrimidine-5-carboxamide] | 71.7 | 88 |
| 1 to 10 | 1 to 10 | 10 to 100 | 10 to 100 | C[C@H]1CCCN1C(=O)Nc1cccc(Nc2ncc(C(N)=O)c(NCc3ccccc3)n2)c1 [Example 139, (S)-4-(benzylamino)-2-(3-(2-methylpyrrolidine-1-carboxamido)phenylamino)pyrimidine-5-carboxamide] | 25.3 | 74.3 |
| 1 to 10 | 1 to 10 | 10 to 100 | 10 to 100 | CC(=O)Nc1cccc(Nc2ncc(C(N)=O)c(NCc3ccccc3F)n2)c1 [Example 100, 2-(3-acetamidophenylamino)-4-(2-fluorobenzylamino)pyrimidine-5-carboxamide] | 43.5 | 95.3 |
